# Read-outs that look alike come from different tables or passages of the source. No end group written: not given here.
# Columns and labels:
# 2B4.11 hybridoma = experiment: Antigen presentation assay (IL-2 produced in response to antigen); assay type: cell-based; details: for % Ave IL2 Production: average, Tables 1-3; for IL2 %: 50 μM, relative to DMSO control (100%); for IL-2 production, % of the solvent only control value: 0.5% DMSO, ±SD
# trypsin = assay type: in vitro ADME
# Experimental: The effect of trypsin on C1 and CP was studied by incubating each peptide (1 μg/μl) in methanol and ammonium bicarbonate (0.1M) with 125 ng/μl of trypsin at pH 8 and 37° C. The effect of trypsin after incubation with CP and C1 was followed by mass spectrometry. […]
# S. aureus = assay type: cell-based
# Experimental: (§1) The synthetic C1 peptide and its analogues were tested using Standard disk susceptibility testing by National Committee for […] Laboratory Standards (NCCLS) against, S. aureus, E. coli and S. pneumoniae. […]
# E. coli = experiment: Standard disk susceptibility testing (NCCLS), E. coli; assay type: cell-based
# Experimental: as §1
# S. pneumoniae = experiment: Standard disk susceptibility testing (NCCLS), S. pneumoniae; assay type: cell-based
# Experimental: as §1
# [1] = Surface plasmon resonance binding to DMPC liposomes; details: SPR, L1 sensor chip, 50 μM, 25° C.
# Experimental: (§2) Model membranes composed of zwitterionic and anionic phospholipids were prepared as previously described (Bender et al., 2004). Briefly, DMPC and DMPG were dissolved in dry chloroform and chloroform/methanol (2:1) respectively to give 10 mg/ml solutions. […] The solution was sonicated in an ultrasonic bath for 20 min. Eight cycles of freeze/thawing was followed by extrusion through polycarbonate filters, first 100 nm (21 times) then 50 nm pore diameter (21 times), using a Lipofast apparatus (Avestin, Ottawa, Canada) and SUVs were used immediately. SPR was carried out on a BIAcore 2000 instrument using Pioneer Sensor Chip L1 and HEPES (HBS-N, Biacore, Upssala, Sweden) as running buffer. The chip surface was cleaned with 40 mM octyl glycoside (30 μl, 10 μl/min) followed liposomes (SUV) (100 μl, 5 μl/min). 10 mM NaOH (40 μl, 10 μl/min) removed any multilamellar vesicles from the surface before injecting the lipopeptide solutions (100 μl, 5 μl/min). The dissociation stage was 1200 sec. […] All SPR experiments were run at 25° C. and all analyses were performed using the BIAevaluation software (Biacore, Uppsala, Sweden). Lipopeptide binding was expressed as the difference in signal between points before sample injection and after dissociation.
# [2] = Surface plasmon resonance binding to DMPG liposomes; details: for binding to DMPG (anionic) liposomes: SPR, L1 sensor chip, 50 μM, 25° C.
# Experimental: as §2
# allergic mice (OVA/OVA) [3] = experiment: Allergic airways disease (OVA) model: inflammatory cells in BALF; assay type: in vivo; set-up: key to Airway lymphocytes / Airway eosinophils / Airway macrophages / Airway inflammatory cells / Airway neutrophils: nc: no change; ↑: increase; ↓: decrease; details: for Airway eosinophils / Airway inflammatory cells / Airway lymphocytes / Airway macrophages / Airway neutrophils: 200 μg/100 μl s.c. during OVA challenge, compared to OVA/OVA alone
# allergic mice (OVA/OVA) [4] = experiment: Allergic airways disease (OVA) model: local and systemic OVA-specific cytokine production; assay type: in vivo; set-up: key to Spleen OVA-stimulated IL-5 / Spleen OVA-stimulated IL-13 / LN OVA-stimulated IL-5 / LNOVA stimulated IL-13: nc: no change; ↑: increase; ↓: decrease; details: for LN OVA-stimulated IL-5 / LNOVA stimulated IL-13 / Spleen OVA-stimulated IL-5 / Spleen OVA-stimulated IL-13: 200 μg/100 μl s.c. during OVA challenge, compared to OVA/OVA alone
# allergic mice (OVA/OVA) [5] = experiment: Allergic airways disease (OVA) model: airways hyperreactivity to methacholine; assay type: in vivo; set-up: key to Airway Resistance / Airway Compliance: nc: no change; ↑: increase; ↓: decrease; details: for Airway Compliance / Airway Resistance: 200 μg/100 μl s.c. during OVA challenge, compared to OVA/OVA alone
# [6] = second IL2 column (individual experiment in triplicate)
# [7] = third IL2 column (individual experiment in triplicate)
# [8] = first IL2 column (individual experiment in triplicate)
# [9] = fifth IL2 column (individual experiment in triplicate)
# [10] = fourth IL2 column (individual experiment in triplicate)
# [11] = 200 μg s.c. during challenge, allergic mice
molecule,measurement,setting,value
LDKLDKKDKLDKVDG (cyclo(LDKLDKKDKLDKVDG); ring closure inferred; not fully specified) [C11],% Ave IL2 Production,2B4.11 hybridoma,96%
same,IL2 %,2B4.11 hybridoma; [6],88.5%
same,IL2 %,2B4.11 hybridoma; [7],104%
LDLLDRLDLLDKVDG (cyclo(LDLLDRLDLLDKVDG); ring closure inferred; not fully specified) [C6],% Ave IL2 Production,2B4.11 hybridoma,99%
same,IL2 %,2B4.11 hybridoma; [8],104.5%
same,IL2 %,2B4.11 hybridoma; [6],104%
same,IL2 %,2B4.11 hybridoma; [7],89%
"GLRILLLKV [CP, GLRILLLKV, reference compound]","stability without trypsin, 3 hours (Mass spectroscopy-MS)",trypsin,No degradation product
same,"stability without trypsin, 24 hours (MS)",trypsin,No degradation product
RDLLDLLDLLDKVDG [C7],% Ave IL2 Production,2B4.11 hybridoma,49%
same,IL2 %,2B4.11 hybridoma; [9],76.4%
same,IL2 %,2B4.11 hybridoma; [8],29%
same,IL2 %,2B4.11 hybridoma; [10],71%
same,IL2 %,2B4.11 hybridoma; [6],15.4%
same,IL2 %,2B4.11 hybridoma; [7],54%
LDRLDKLDKLDKVDG (cyclo(LDRLDKLDKLDKVDG); ring closure inferred; not fully specified) [C10],% Ave IL2 Production,2B4.11 hybridoma,59%
same,IL2 %,2B4.11 hybridoma; [9],64.1%
same,IL2 %,2B4.11 hybridoma; [10],54%
"CO/N=C(\C(=O)N[C@@H]1C(=O)N2C(C(=O)O)=C(COC(C)=O)CS[C@H]12)c1csc(N)n1 [Ceforaxime, reference compound]","antimicrobial activity, S. aureus",S. aureus; 30 μg/ml,−ve
same,"antimicrobial activity, E. coli",E. coli; 30 μg/ml,+ve
same,"antimicrobial activity, S. pneumoniae",S. pneumoniae; 30 μg/ml,−ve
LDRLDKKDKLDKVDG (cyclo(LDRLDKKDKLDKVDG); ring closure inferred; not fully specified) [C12],% Ave IL2 Production,2B4.11 hybridoma,27%
same,IL2 %,2B4.11 hybridoma; [9],24%
same,IL2 %,2B4.11 hybridoma; [8],9.0%
same,IL2 %,2B4.11 hybridoma; [10],33.7%
same,IL2 %,2B4.11 hybridoma; [6],21%
same,IL2 %,2B4.11 hybridoma; [7],(49) %
LDRLDLLDLLDRVDG [C4],% Ave IL2 Production,2B4.11 hybridoma,72%
same,"IL-2 production, % of the solvent only control value",2B4.11 hybridoma; peptide 50 μM,74.54%±11.22
same,binding to DMPC (zwitterionic) liposomes,[1],no binding at all
same,binding to DMPG (anionic) liposomes,[2],no binding at all
same,"antimicrobial activity, S. aureus",S. aureus; peptide 10 μg/ml,−ve
same,"antimicrobial activity, S. aureus",S. aureus; peptide 100 μg/ml,−ve
same,"antimicrobial activity, S. aureus",S. aureus; peptide 1000 μg/ml,−ve
same,"antimicrobial activity, E. coli",E. coli; peptide 10 μg/ml,−ve
same,"antimicrobial activity, E. coli",E. coli; peptide 100 μg/ml,−ve
same,"antimicrobial activity, E. coli",E. coli; peptide 1000 μg/ml,−ve
same,"antimicrobial activity, S. pneumoniae",S. pneumoniae; peptide 10 μg/ml,−ve
same,"antimicrobial activity, S. pneumoniae",S. pneumoniae; peptide 100 μg/ml,−ve
same,"antimicrobial activity, S. pneumoniae",S. pneumoniae; peptide 1000 μg/ml,−ve
"LDRLDLLDKLDKVDG (cyclo(LDRLDLLDKLDKVDG); ring closure inferred; not fully specified) [C3, cyclic peptide 3]",% Ave IL2 Production,2B4.11 hybridoma,95%
same,"IL-2 production, % of the solvent only control value",2B4.11 hybridoma; peptide 50 μM,91.69%±25.86
same,binding to DMPC (zwitterionic) liposomes,[1],no binding at all
same,binding to DMPG (anionic) liposomes,[2],no binding at all
same,"antimicrobial activity, S. aureus",S. aureus; peptide 100 μg/ml,−ve
same,"antimicrobial activity, S. aureus",S. aureus; peptide 1000 μg/ml,−ve
same,"antimicrobial activity, E. coli",E. coli; peptide 100 μg/ml,−ve
same,"antimicrobial activity, E. coli",E. coli; peptide 1000 μg/ml,−ve
same,"antimicrobial activity, S. pneumoniae",S. pneumoniae; peptide 100 μg/ml,−ve
same,"antimicrobial activity, S. pneumoniae",S. pneumoniae; peptide 1000 μg/ml,−ve
"Cc1onc(-c2ccccc2)c1C(=O)N[C@@H]1C(=O)N2[C@@H]1SC(C)(C)[C@@H]2C(=O)O [Oxacillin, reference compound]","antimicrobial activity, S. aureus",S. aureus; 1 μg/ml,+ve
same,"antimicrobial activity, E. coli",E. coli; 1 μg/ml,−ve
same,"antimicrobial activity, S. pneumoniae",S. pneumoniae; 1 μg/ml,+ve
LDRLDLLDKVDG [8AA],% Ave IL2 Production,2B4.11 hybridoma,72%
LDKLDLLDLLDKVDG (cyclo(LDKLDLLDLLDKVDG); ring closure inferred; not fully specified) [C5],% Ave IL2 Production,2B4.11 hybridoma,78%
same,IL2 %,2B4.11 hybridoma; [8],73.6%
same,IL2 %,2B4.11 hybridoma; [6],75%
same,IL2 %,2B4.11 hybridoma; [7],85.4%
LDRLDKLDLLDKVDG (cyclo(LDRLDKLDLLDKVDG); ring closure inferred; not fully specified) [C9],% Ave IL2 Production,2B4.11 hybridoma,25%
same,IL2 %,2B4.11 hybridoma; [9],16.9%
same,IL2 %,2B4.11 hybridoma; [10],6.75%
same,IL2 %,2B4.11 hybridoma; [6],11.5%
same,IL2 %,2B4.11 hybridoma; [7],(65.3) %
LDLLDLLDRLDKVDG (cyclo(LDLLDLLDRLDKVDG); ring closure inferred; not fully specified) [C8],% Ave IL2 Production,2B4.11 hybridoma,33%
same,IL2 %,2B4.11 hybridoma; [9],17.4%
same,IL2 %,2B4.11 hybridoma; [10],20.2%
same,IL2 %,2B4.11 hybridoma; [6],35%
same,IL2 %,2B4.11 hybridoma; [7],(61.2) %
LDRLDKVDG (cyclo(LDRLDKVDG); ring closure inferred; not fully specified) [6AA],% Ave IL2 Production,2B4.11 hybridoma,35%
same,IL2 %,2B4.11 hybridoma; [9],44.3%
same,IL2 %,2B4.11 hybridoma; [8],9.0%
same,IL2 %,2B4.11 hybridoma; [10],33.7%
same,IL2 %,2B4.11 hybridoma; [6],36.5%
same,IL2 %,2B4.11 hybridoma; [7],(52) %
"C[C@H]1C[C@@H]2[C@H]([C@@H](O)C[C@@]3(C)[C@H]2CC[C@]3(O)C(=O)CO)[C@@]2(C)C=CC(=O)C=C12 [methylprednisolone, reference compound]",Airway eosinophils,allergic mice (OVA/OVA) [3],↓
same,Airway inflammatory cells,allergic mice (OVA/OVA) [3],↓
same,Airway lymphocytes,allergic mice (OVA/OVA) [3],nc
same,Airway macrophages,allergic mice (OVA/OVA) [3],↓
same,Airway neutrophils,allergic mice (OVA/OVA) [3],↓
same,LN OVA-stimulated IL-5,allergic mice (OVA/OVA) [4],nc
same,LNOVA stimulated IL-13,allergic mice (OVA/OVA) [4],nc
same,Spleen OVA-stimulated IL-5,allergic mice (OVA/OVA) [4],↓
same,Spleen OVA-stimulated IL-13,allergic mice (OVA/OVA) [4],↓
same,Airway Compliance,allergic mice (OVA/OVA) [5],↑
same,Airway Resistance,allergic mice (OVA/OVA) [5],↓
LDRLDLLDLLDKVDG [C1-L],% Ave IL2 Production,2B4.11 hybridoma,90%
same,"IL-2 production, % of the solvent only control value",2B4.11 hybridoma; peptide 50 μM,only minimal activity
same,binding to DMPC (zwitterionic) liposomes,[1],only very limited binding
same,binding to DMPG (anionic) liposomes,[2],only very limited binding
same,eosinophils in BALF,allergic mice (OVA/OVA) [3]; [11],decrease
same,total inflammatory cell counts in bronchoalveolar lavage fluid (BALF),allergic mice (OVA/OVA) [3]; [11],significantly decreased
same,Airway eosinophils,allergic mice (OVA/OVA) [3],↓
same,Airway inflammatory cells,allergic mice (OVA/OVA) [3],↓
same,Airway lymphocytes,allergic mice (OVA/OVA) [3],nc
same,Airway macrophages,allergic mice (OVA/OVA) [3],nc
same,Airway neutrophils,allergic mice (OVA/OVA) [3],nc
same,locally produced (peribronchial lymph node derived) IL-5,allergic mice (OVA/OVA) [4]; [11],no significant impact
same,locally produced (peribronchial lymph node derived) IL-13,allergic mice (OVA/OVA) [4]; [11],no significant impact
same,systemic (spleen derived) IL-5,allergic mice (OVA/OVA) [4]; [11],significantly decreased
same,systemic (spleen derived) IL-13,allergic mice (OVA/OVA) [4]; [11],no change
same,LN OVA-stimulated IL-5,allergic mice (OVA/OVA) [4],nc
same,LNOVA stimulated IL-13,allergic mice (OVA/OVA) [4],nc
same,Spleen OVA-stimulated IL-5,allergic mice (OVA/OVA) [4],↓
same,Spleen OVA-stimulated IL-13,allergic mice (OVA/OVA) [4],nc
same,airway resistance in response to methacholine challenge,allergic mice (OVA/OVA) [5]; [11],no significant effect
same,dynamic compliance in response to methacholine challenge,allergic mice (OVA/OVA) [5]; [11],no significant effect
same,Airway Compliance,allergic mice (OVA/OVA) [5],nc
same,Airway Resistance,allergic mice (OVA/OVA) [5],nc
LDKLDKLDKLDKVDG [C2],% Ave IL2 Production,2B4.11 hybridoma,22%
same,"IL-2 production, % of the solvent only control value",2B4.11 hybridoma; peptide 25 μM,58.74%±7.63
same,"IL-2 production, % of the solvent only control value",2B4.11 hybridoma; peptide 50 μM,24.51%±8.81
same,binding to DMPC (zwitterionic) liposomes,[1],only very limited binding
same,binding to the anionic liposome,[2]; SPR sensorgram,3000 RU
same,"antimicrobial activity, S. aureus",S. aureus; peptide 10 μg/ml,−ve
same,"antimicrobial activity, S. aureus",S. aureus; peptide 100 μg/ml,−ve
same,"antimicrobial activity, S. aureus",S. aureus; peptide 1000 μg/ml,−ve
same,"antimicrobial activity, E. coli",E. coli; peptide 10 μg/ml,−ve
same,"antimicrobial activity, E. coli",E. coli; peptide 100 μg/ml,−ve
same,"antimicrobial activity, E. coli",E. coli; peptide 1000 μg/ml,−ve
same,"antimicrobial activity, S. pneumoniae",S. pneumoniae; peptide 10 μg/ml,−ve
same,"antimicrobial activity, S. pneumoniae",S. pneumoniae; peptide 100 μg/ml,−ve
same,"antimicrobial activity, S. pneumoniae",S. pneumoniae; peptide 1000 μg/ml,−ve
